Results as given in patent US7659304B2, “Tryptophan derivative and application thereof” (priority 2005, dated 2010).

Key:
osteoclasts [1] = assay: Influence on osteoclasts: tartrate-resistant acid phosphatase (TRAP) activity in cultured goldfish scales; assay type: cell-based; settings: for TRAP activity: Amount of para-nitrophenol produced (mean ± standard error): 10^−6 M, scales cultured at 25° C. for 6 hours, control 0.700 ± 0.041
Method: The influence of the tryptophan derivatives on bone cells was tested according to a method described in N. Suzuki and A. Hattori, J. Pineal Res., 33, 253-258 (2002). Required pieces of scales were ablated from female goldfish (body weight: around 30 g) under anesthesia with MS222 (ethyl 3-aminobenzoate, methane sulfonic acid salt) (Aldrich). The scales were washed twice with an Eagle's minimum essential medium (Dainippon Pharmaceutical Co., Ltd.) containing 1% antibiotic (penicillin-streptomycin mixture). The same medium was added at 1 ml/well to a 24-well plate. The scales were added at several pieces (usually eight)/well thereto. Each tryptophan derivative was added at a concentration of 10^−6 M to each well. Subsequently, these scales were cultured at 25° C. for 6 hours. A tryptophan derivative-free group (control) was also prepared to compare the effects on bone cells. In this test, two groups, one for osteoclasts and the other for osteoblasts, were used for the tryptophan derivatives and compared them with the control. To ensure the obtained results, the duplicate test was performed. Thus, in the 24-well plate, 6 tryptophan derivatives can be examined. After culture, the medium was removed. The scales were fixed by the addition of 0.05 M cacodylic acid buffer (pH 7.4) containing 10% formalin. These scales were stored in 0.05 M cacodylic acid buffer at 4° C. until enzyme activity measurement. • (1) Influence on Osteoclasts: Tartrate-Resistant Acid Phosphatase (TRAP) Activity Measurement The scales treated by fixation were moved and weighed. After measurement, the scales were put into a 96-well microplate. To each well, 2001 of 100 mM acetate buffer (pH 5.3) containing 20 mM tartrate and 10 mM para-nitrophenol phosphate (substrate) was added. Reaction was performed at 25° C. for 20 minutes and subsequently terminated by the addition of a 3 M sodium hydroxide aqueous solution (50±1). Then, […] of the solution after the completion of reaction was transferred to another microplate. The amount of para-nitrophenol (p-NP) produced by TRAP was measured with a spectrophotometer (405 nm). The osteoclast activity was indicated as the amount of p-NP produced by the decomposition of para-nitrophenol phosphate per g of scale per minute.

osteoblasts [2] = assay: Influence on osteoblasts: alkaline phosphatase (ALP) activity in cultured goldfish scales; assay type: cell-based; settings: for ALP activity: Amount of para-nitrophenol produced (mean ± standard error): 10^−6 M, scales cultured at 25° C. for 6 hours, control 1.37 ± 0.18
Method: The influence of the tryptophan derivatives on bone cells was tested according to a method described in N. Suzuki and A. Hattori, J. Pineal Res., 33, 253-258 (2002). Required pieces of scales were ablated from female goldfish (body weight: around 30 g) under anesthesia with MS222 (ethyl 3-aminobenzoate, methane sulfonic acid salt) (Aldrich). The scales were washed twice with an Eagle's minimum essential medium (Dainippon Pharmaceutical Co., Ltd.) containing 1% antibiotic (penicillin-streptomycin mixture). The same medium was added at 1 ml/well to a 24-well plate. The scales were added at several pieces (usually eight)/well thereto. Each tryptophan derivative was added at a concentration of 10^−6 M to each well. Subsequently, these scales were cultured at 25° C. for 6 hours. A tryptophan derivative-free group (control) was also prepared to compare the effects on bone cells. In this test, two groups, one for osteoclasts and the other for osteoblasts, were used for the tryptophan derivatives and compared them with the control. To ensure the obtained results, the duplicate test was performed. Thus, in the 24-well plate, 6 tryptophan derivatives can be examined. After culture, the medium was removed. The scales were fixed by the addition of 0.05 M cacodylic acid buffer (pH 7.4) containing 10% formalin. These scales were stored in 0.05 M cacodylic acid buffer at 4° C. until enzyme activity measurement. • (1) […] The scales treated by fixation were moved and weighed. After measurement, the scales were put into a 96-well microplate. To each well, 2001 of 100 mM tris-HCl buffer (pH 9.5) containing 10 mM para-nitrophenol phosphate (substrate), 1 mM magnesium chloride, and 0.1 mM zinc chloride was added. Reaction was performed at 25° C. for 15 minutes and terminated by the addition of a 3 M sodium hydroxide aqueous solution (50 μl). Then, 150 μl of the solution after the completion of reaction was transferred to another microplate. The amount of p-NP produced by ALP was measured with a spectrophotometer (405 nm) to determine the activity.

[3] = system: bone metabolism of ovariectomized model rat; assay: Effect on bone metabolism of ovariectomized model rat (femur pQCT); assay type: in vivo; settings: OVX rats, 0.17 mg/rat by gavage once a day for 6 weeks
Method: A test substance was the compound No. 4 ((S)-(+)-N-acetyl-2,4,6-tribromo-5-methoxytryptophan methyl ester), which was a white powder having a molecular weight of 527, and was stored at room temperature. Commercially available dimethyl sulfoxide (DMSO, Wako Pure Chemical Industries, Ltd.) was purchased as a solvent and stored at room temperature. • 2. Method for Preparing Test Substance
The solution of the test substance was administered in a volume of 100 μL/rat in consideration of the toxicity of the solvent. For a dose of 0.17 mg of the test substance (compound No. 4)/rat, 86.6 mg of the test substance was weighed and dissolved in 50.9 mL of the solvent (0.17 mg/0.1 mL). • 3. Animal Used and Raising Conditions
Five-week-old female SPF SD (Crl:SD) rats were obtained from Charles River Laboratories Japan, Inc. After seven-day acclimation and quarantine, 6-week-old ovariectomized models were prepared. Administration was performed from the day following model preparation.
The animals were raised in the rat/mouse room of a test laboratory set to a temperature of 24±3° C., a humidity of 50±20%, the number of ventilations of approximately 10 to 20 times/hour, a lighting time of 12 hours/day (8:00 light on, 20:00 light off), and an illuminance of 150 to 300 Lux. • 4. Administration Method
The test substance was administered once a day for 6 weeks by gavage administration to the rats without anesthesia under non-fasting by use of a feeding needle made of a metal and a syringe barrel. In this context, 1 week is defined as 7 days, and the day following ovariectomy when the administration was initiated is defined as Day 1. The amount of the solution administered was set to 0.1 mL/rat.
The bone densities of the left femurs were measured using a peripheral bone density measurement apparatus PQCT (abbreviation of peripheral Quantitative Computed Tomography, XCT-Research SA+, Stratec). For cancellous bone parameter measurement, the metaphyseal region was sliced at a distance of 3 mm from the distal growth cartilage. Alternatively, for cortical bone parameter measurement, the diaphyseal region was sliced at a distance of 13 mm therefrom. The measurement parameters were a bone density (total density and cancellous bone), an area (total area and cancellous bone), and SSI (Stress Strain Index) for the metaphyseal region and were the bone density, area, and thickness of the cortical bone, a periosteal circumference length, an endosteal circumference length, and SSI for the diaphyseal region. Software used was Rev.5.50e.

osteoblasts [4] = settings: literature report; cited from earlier work
osteoclasts [5] = settings: literature report; cited from earlier work

COC(=O)[C@H](Cc1c(Br)[nH]c2cc(Br)c(OC)c(Br)c12)NC(C)=O [Compound 4, (S)-(+)-N-acetyl-2,4,6-tribromo-5-methoxytryptophan methyl ester]
TRAP activity: Amount of para-nitrophenol produced (mean ± standard error) (osteoclasts [1]): 0.699 ± 0.064 nmol/g of scale/min | ALP activity: Amount of para-nitrophenol produced (mean ± standard error) (osteoblasts [2]): 2.62 ± 0.20 nmol/g of scale/min | bone density of the cancellous bone (metaphyseal region) compared with OVX + Vehicle group (in words) [3]: increased | change in the diaphyseal region compared with OVX + Vehicle group (in words) [3]: no change | total bone density of the metaphyseal region compared with OVX + Vehicle group (in words) [3]: increased | Diaphyseal region SSI Polar ([3]; left femur, OVX + Vehicle 6.753 ± 0.380): 6.877 ± 0.605 | Diaphyseal region Endosteal circumference length ([3]; left femur, OVX + Vehicle 8.360 ± 0.467): 8.260 ± 0.666 mm | Metaphyseal region Area Cancellous bone ([3]; left femur, OVX + Vehicle 9.47 ± 1.52): 7.44 ± 0.47 mm^2 | Metaphyseal region SSI Polar ([3]; left femur, OVX + Vehicle 9.801 ± 0.574): 11.474 ± 0.346 | Diaphyseal region Periosteal circumference length ([3]; left femur, OVX + Vehicle 11.819 ± 0.333): 11.729 ± 0.455 mm | Metaphyseal region Area Total area ([3]; left femur, OVX + Vehicle 21.69 ± 1.61): 23.67 ± 1.34 mm^2 | Metaphyseal region Bone density Cancellous bone ([3]; left femur, OVX + Vehicle 192.9 ± 24.6): 253.4 ± 2.9 mg/mL | Metaphyseal region Bone density Total density ([3]; left femur, OVX + Vehicle 473.1 ± 29.3): 520.4 ± 31.7 mg/mL | Diaphyseal region Thickness ([3]; cortical bone, left femur, OVX + Vehicle 0.551 ± 0.021): 0.552 ± 0.038 mm | Diaphyseal region Area ([3]; cortical bone, left femur, OVX + Vehicle 5.55 ± 0.02): 5.50 ± 0.17 mm^2 | Diaphyseal region Bone density ([3]; cortical bone, left femur, OVX + Vehicle 1265.7 ± 15.9): 1254.9 ± 14.6 mg/mL | melting point: 198 to 199 °C

COC(=O)[C@H](Cc1c(Br)n(C(=O)OC(C)(C)C)c2cc(Br)c(OC)c(Br)c12)NC(C)=O [Compound 5, (S)-(+)-N-acetyl-2,4,6-tribromo-1-t-butoxycarbonyl-5-methoxytryptophan methyl ester]
TRAP activity: Amount of para-nitrophenol produced (mean ± standard error) (osteoclasts [1]): 0.747 ± 0.063 nmol/g of scale/min | ALP activity: Amount of para-nitrophenol produced (mean ± standard error) (osteoblasts [2]): 2.48 ± 0.42 nmol/g of scale/min

C=CCn1c(Br)c(C[C@H](NC(C)=O)C(=O)OC)c2c(Br)c(OC)c(Br)cc21 [Compound 6, (S)-(+)-N-acetyl-1-allyl-2,4,6-tribromo-5-methoxytryptophan methyl ester]
TRAP activity: Amount of para-nitrophenol produced (mean ± standard error) (osteoclasts [1]): 0.882 ± 0.106 nmol/g of scale/min | ALP activity: Amount of para-nitrophenol produced (mean ± standard error) (osteoblasts [2]): 2.39 ± 0.40 nmol/g of scale/min

COC(=O)[C@H](Cc1c(Br)n(Cc2ccccc2)c2cc(Br)c(OC)c(Br)c12)NC(C)=O [Compound 8, (S)-(+)-N-acetyl-1-benzyl-2,4,6-tribromo-5-methoxytryptophan methyl ester]
TRAP activity: Amount of para-nitrophenol produced (mean ± standard error) (osteoclasts [1]): 0.829 ± 0.047 nmol/g of scale/min | ALP activity: Amount of para-nitrophenol produced (mean ± standard error) (osteoblasts [2]): 1.17 ± 0.32 nmol/g of scale/min

COC(=O)[C@H](Cc1c(Br)[nH]c2c(Br)cc(OC)c(Br)c12)NC(C)=O [Compound 3, (S)-(+)-N-acetyl-2,4,7-tribromo-5-methoxytryptophan methyl ester]
melting point: 218 to 220 °C

COC(=O)[C@H](Cc1c(Br)[nH]c2cc(Br)c(OC)cc12)NC(C)=O [Compound 2, (S)-(+)-N-acetyl-2,6-dibromo-5-methoxytryptophan methyl ester]
melting point: 174 to 175 °C

COc1ccc2[nH]cc(CCNC(C)=O)c2c1 [Melatonin, N-acetyl-5-methoxytryptamine, reference compound]
action on osteoblasts (in words), reported in Non-Patent Document 1 (osteoblasts [4]): inhibitory | TRAP activity: Amount of para-nitrophenol produced (mean ± standard error) (osteoclasts [1]): 0.467 ± 0.052 nmol/g of scale/min | action on osteoclasts (in words) (osteoclasts [1]; conclusion from Table 1): inhibitory | ALP activity: Amount of para-nitrophenol produced (mean ± standard error) (osteoblasts [2]): 1.06 ± 0.17 nmol/g of scale/min | action on osteoblasts (in words) (osteoblasts [2]; conclusion from Table 2): inhibitory | action on osteoclasts (in words), reported in Non-Patent Document 1 (osteoclasts [5]): inhibitory

C#CCn1c(Br)c(C[C@H](NC(C)=O)C(=O)OC)c2c(Br)c(OC)c(Br)cc21 [Compound 7, (S)-(+)-N-acetyl-2,4,6-tribromo-5-methoxy-1-propargyltryptophan methyl ester]
TRAP activity: Amount of para-nitrophenol produced (mean ± standard error) (osteoclasts [1]): 0.838 ± 0.056 nmol/g of scale/min | ALP activity: Amount of para-nitrophenol produced (mean ± standard error) (osteoblasts [2]): 2.50 ± 0.51 nmol/g of scale/min
